One experiment addresses human ATX (Homo sapiens (Human), UniProt Q13822). Description: Human ATX enzyme inhibition assay (fluorescence quenching, MR121 substrate). Format: biochemical. The gist of the method:
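Human His-tagged ATX (30 nM final) preincubated 15 min at 30 °C with serially diluted compounds in Tris buffer pH 8.0 with Ca2+, Mg2+ and 0.01% Triton X-100. MR121/tryptophan-labelled substrate analogue (1 μM final) then added for 15 min at 30 °C; cleavage read by fluorescence dequenching.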

Experiment [1] deals with Human carbonic anhydrase II (hCA-II) (Homo sapiens (Human), UniProt P00918). Description: Human carbonic anhydrase-II inhibition assay (absorbance, 4-nitrophenyl acetate substrate). Format: biochemical.

In US10647719B2, “Bicyclic compounds as dual ATX/CA inhibitors” (Hoffmann-La Roche Inc., priority 2015, dated 2020) one finds IC50 data, which are given here for five compounds.

pIC50: −log10 of the molar value. Like-named read-outs stand apart in the source and are kept apart here.

As usually defined, the pIC50 is −log10 of the IC50, conventionally taken in molar units.

`CC(C)(C)C(=O)Nc1cc(Cl)c(Cl)nc1COC(=O)N1CC2=C(C1)CN(C(=O)c1ccc(S(N)(=O)=O)c(F)c1F)C2` [Example 1.30, [5,6-dichloro-3-(2,2-dimethylpropanoylamino)pyridin-2-yl]methyl 2-(2,3-difluoro-4-sulfamoylbenzoyl)-1,3,4,6-tetrahydropyrrolo[3,4-c]pyrrole-5-carboxylate]: the results for the pIC50 (against human ATX; in experiment [1]) were 8.00 and 8.38, respectively.

As for `NS(=O)(=O)c1ccc(C(=O)N2CC3=C(CN(C(=O)CCc4ccc(OC(F)(F)F)cc4)C3)C2)nc1` [Example 3.01, 6-[2-[3-[4-(trifluoromethoxy)phenyl]propanoyl]-1,3,4,6-tetrahydropyrrolo[3,4-c]pyrrole-5-carbonyl]pyridine-3-sulfonamide], the figures for the pIC50 (against human ATX; in experiment [1]) were 8.30 and 7.92, respectively.

For the compound `CC(C)(C)C(=O)Nc1cc(C(F)(F)F)cnc1COC(=O)N1CC2=C(C1)CN(S(=O)(=O)c1ccc(S(N)(=O)=O)cc1F)C2` [Example 5.00, [3-(2,2-dimethylpropanoylamino)-5-(trifluoromethyl)pyridin-2-yl]methyl 5-(2-fluoro-4-sulfamoylphenyl)sulfonyl-1,3,4,6-tetrahydropyrrolo[3,4-c]pyrrole-2-carboxylate], the pIC50 at human ATX (human His-tagged ATX 30 nM, MR121 substrate 1 μM, 30° C., read-out: ATX IC50) is 8.15; in experiment [1] (hCA II 8 nM, 4-NPA 2.5 mM, absorbance 340 nm, room temperature 1 hour, read-out: CA-II IC50), 7.75.

In the case of `Cc1nnn(Cc2cc(Cl)cnc2COC(=O)N2CC3=C(C2)CN(C(=O)c2ccc(S(N)(=O)=O)cc2F)C3)n1` [Example 2.04, [5-chloro-3-[(5-methyltetrazol-2-yl)methyl]pyridin-2-yl]methyl 2-(2-fluoro-4-sulfamoylbenzoyl)-1,3,4,6-tetrahydropyrrolo[3,4-c]pyrrole-5-carboxylate], the pIC50 against human ATX was 7.92; in experiment [1], 8.72.

Take `NS(=O)(=O)c1ccc(C(=O)N2CCC3=C(CCN(C(=O)OCc4ccc(OC(F)(F)F)cc4)C3)C2)c(F)c1` [Example 2.01, [4-(trifluoromethoxy)phenyl]methyl 6-(2-fluoro-4-sulfamoylbenzoyl)-1,3,4,5,7,8-hexahydro-2,6-naphthyridine-2-carboxylate]: the pIC50 at human ATX was 7.85; in experiment [1], 7.74.
